According to PubChem BioAssay AID504934 (The Scripps Research Institute Molecular Screening Center, 2011):
The source made the active and inactive calls. The rule behind the calls is not given here.

What was measured:
Assay in all cases: PubChem AID 504934
[1] = system: ERRg; settings: nuclear receptor panel Gal4 luciferase reporter, at 10 µM
[2] = system: EAR-2 (COUP-TF3); settings: nuclear receptor panel Gal4 luciferase reporter, at 10 µM
[3] = biological target: Hepatocyte nuclear factor 4-alpha (Homo sapiens) (UniProt P41235); settings: nuclear receptor panel Gal4 luciferase reporter, HNF4a, at 10 µM
Chain of Hepatocyte nuclear factor 4-alpha (Homo sapiens) (P41235 whole entry, looked up, the tested form may be a part): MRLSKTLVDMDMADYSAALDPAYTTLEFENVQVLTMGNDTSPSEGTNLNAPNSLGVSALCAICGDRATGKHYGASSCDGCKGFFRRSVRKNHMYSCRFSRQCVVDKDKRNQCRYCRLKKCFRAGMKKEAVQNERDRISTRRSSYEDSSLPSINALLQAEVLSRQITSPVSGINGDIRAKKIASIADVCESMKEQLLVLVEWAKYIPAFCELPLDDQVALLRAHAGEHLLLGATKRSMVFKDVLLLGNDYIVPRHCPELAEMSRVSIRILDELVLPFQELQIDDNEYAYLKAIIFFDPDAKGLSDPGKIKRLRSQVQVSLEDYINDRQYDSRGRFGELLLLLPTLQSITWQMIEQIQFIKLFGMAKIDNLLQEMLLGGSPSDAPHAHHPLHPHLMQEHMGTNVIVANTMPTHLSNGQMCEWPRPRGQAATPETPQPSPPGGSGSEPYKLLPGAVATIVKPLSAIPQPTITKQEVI

[4] = system: THRb; settings: nuclear receptor panel Gal4 luciferase reporter, at 10 µM

fold change [1]: 0.49 | fold change [2]: 1 (inactive) | fold change [3]: 0.61 | fold change [4]: 1.06 (inactive)
Structure (SMILES): O=c1cc(N2CCN(c3cccc(Cl)c3)CC2)[nH]c(=O)n1C1CCCCC1
